Results taken from patent US6358885B1, “Substituted phenylheterocyclic herbicides” (Mississippi State University, priority 1992, dated 2002).

Tests used:
[1] = system: Japonica rice; assay: Test D paddy water application plant response rating 0 to 100; assay type: in vivo, Oryza sativa; conditions: 0 to 100 scale, approx. 21 days
Method in brief: (§1)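 Pots of water-saturated silt loam were kept flooded 3 cm above the soil. Compounds in non-phytotoxic solvent were applied into the paddy water. Plants were visually rated against untreated controls after about 21 days in the greenhouse.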

[2] = system: barnyardgrass; assay: as above; assay type: in vivo, Echinochloa crus-galli; conditions: 0 to 100 scale, approx. 21 days
Method in brief: as §1

[3] = system: duck salad; assay: as above; assay type: in vivo, Heteranthera limosa; conditions: 0 to 100 scale, approx. 21 days
Method in brief: as §1

[4] = system: umbrella sedge; assay: as above; assay type: in vivo, Cyperus difformis; conditions: 0 to 100 scale, approx. 21 days
Method in brief: as §1

[5] = system: arrowhead; assay: as above; assay type: in vivo, Sagittaria spp.; conditions: 0 to 100 scale, approx. 21 days
Method in brief: as §1

[6] = system: waterchestnut; assay: as above; assay type: in vivo, Eleocharis spp.; conditions: 0 to 100 scale, approx. 21 days
Method in brief: as §1

[7] = system: Japonica rice; assay: Test E paddy water application plant response rating 0 to 100; assay type: in vivo, oryza sativa; conditions: Flood, 0 to 100 scale, approx. 21 days
Method in brief: (§2)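 Compounds in a non-phytotoxic solvent were applied directly to paddy water kept 2 cm above silt loam soil in greenhouse pots.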

[8] = system: barnyardgrass; assay: as above; assay type: in vivo, Echinochloa crus-galli; conditions: Flood, 0 to 100 scale, approx. 21 days
Method in brief: as §2

[9] = system: blackgrass; assay: Test F preemergence/postemergence greenhouse plant response rating 0 to 100; assay type: in vivo, Alopecurus myosuroides; conditions: POSTEMERGENCE, 0 to 100 scale; for Blackgrass (1) plant response rating: stage (1) two to three leaves; for Blackgrass (2) plant response rating: stage (2) approximately four leaves or initial tillering
Description: (§3) Compounds evaluated in this test were formulated in a non-phytoxic solvent and applied to the soil surface before plant seedlings emerged (preemergence application) and to plants that were in the one-to-four leaf stage (postemergence application). A sandy loam soil was used for the preemergence test while a mixture of sandy loam soil and greenhouse potting mix in a 60:40 ratio was used for the postemergence test. Test compounds were applied within approximately one day after planting seeds for the preemergence test. Plantings of these crops and weed species were adjusted to produce plants of appropriate size for the postemergence test. All plant species were grown using normal greenhouse practices. Crop and weed species include winter barley (Hordeum vulgare cv. ‘Igri’), blackgrass (Alopecurus myosuroides), chickweed (Stellaria media), downy brome (Bromus tectorum), field violet (Viola arvensis), galium (Galium aparine), green foxtail (Setaria viridis), kochia (Kochia scoparia), lambsquarters (Chenopodium album), speedwell (Veronica persica), rape (Brassica napus), ryegrass (Lolium multiflorum), sugar beet (Beta vulgaris cv. ‘USl’), sunflower (Helianthus annuus cv. ‘Russian Giant’), spring wheat (Triticum aestivum cv. ‘ERA’), winter wheat (Triticum aestivum cv. ‘Talent’), wild buckwheat (Polygonum convolvulus), wild mustard (Sinapis arvensis), wild oat (Avena fatua), and wild radish (Raphanus raphanistrum). Blackgrass, galium and wild oat were treated at two growth stages. […] Treated plants and untreated controls were maintained in a greenhouse for approximately 21 to 28 days, after which all treated plants were compared to untreated controls and visually evaluated. […] A dash response (-) means no test result.

[10] = system: green foxtail; assay: as above; assay type: in vivo, Setaria viridis; conditions: POSTEMERGENCE, 0 to 100 scale
Description: as §3

[11] = system: speedwell; assay: as above; assay type: in vivo, Veronica persica; conditions: POSTEMERGENCE, 0 to 100 scale
Description: as §3

[12] = system: rape; assay: as above; assay type: in vivo, Brassica napus; conditions: POSTEMERGENCE, 0 to 100 scale
Description: as §3

[13] = system: sugar beet; assay: as above; assay type: in vivo, Beta vulgaris cv. ‘USl’; conditions: POSTEMERGENCE, 0 to 100 scale
Description: as §3

[14] = system: wild buckwheat; assay: as above; assay type: in vivo, Polygonum convolvulus; conditions: POSTEMERGENCE, 0 to 100 scale
Description: as §3

Which results are given for `Fc1cc(Cl)c(OCCCl)cc1-c1nn2c(c1Cl)CCCC2` [Compound 49]?
Japonica rice plant response rating ([1]; Rate 4 g/ha): 10; Japonica rice plant response rating ([1]; Rate 8 g/ha): 10; Japonica rice plant response rating ([1]; Rate 16 g/ha): 10; Japonica rice plant response rating ([1]; Rate 32 g/ha): 15; Japonica rice plant response rating ([1]; Rate 64 g/ha): 20; Barnyardgrass 2 plant response rating ([2]; Rate 4 g/ha): 0; Barnyardgrass 2 plant response rating ([2]; Rate 8 g/ha): 20; Barnyardgrass 2 plant response rating ([2]; Rate 16 g/ha): 30; Barnyardgrass 2 plant response rating ([2]; Rate 32 g/ha): 70; Barnyardgrass 2 plant response rating ([2]; Rate 64 g/ha): 100; Duck salad plant response rating ([3]; Rate 4 g/ha): 0; Duck salad plant response rating ([3]; Rate 8 g/ha): 0; Duck salad plant response rating ([3]; Rate 16 g/ha): 0; Duck salad plant response rating ([3]; Rate 32 g/ha): 0; Duck salad plant response rating ([3]; Rate 64 g/ha): 10; Umbrella sedge plant response rating ([4]; Rate 4 g/ha): 0; Umbrella sedge plant response rating ([4]; Rate 8 g/ha): 0; Umbrella sedge plant response rating ([4]; Rate 16 g/ha): 0; Umbrella sedge plant response rating ([4]; Rate 32 g/ha): 0; Umbrella sedge plant response rating ([4]; Rate 64 g/ha): 50; Arrowhead plant response rating ([5]; Rate 4 g/ha): 0; Arrowhead plant response rating ([5]; Rate 8 g/ha): 0; Arrowhead plant response rating ([5]; Rate 16 g/ha): 0; Arrowhead plant response rating ([5]; Rate 64 g/ha): 0; Waterchestnut plant response rating ([6]; Rate 4 g/ha): 0; Waterchestnut plant response rating ([6]; Rate 8 g/ha): 0; Waterchestnut plant response rating ([6]; Rate 16 g/ha): 0; Waterchestnut plant response rating ([6]; Rate 32 g/ha): 10; Waterchestnut plant response rating ([6]; Rate 64 g/ha): 20; Japonica 1 plant response rating ([7]; Rate 8 g/ha): 0; Japonica 2 plant response rating ([7]; Rate 8 g/ha): 0; Japonica 1 plant response rating ([7]; Rate 16 g/ha): 0; Japonica 2 plant response rating ([7]; Rate 16 g/ha): 20; Japonica 1 plant response rating ([7]; Rate 32 g/ha): 0; Japonica 2 plant response rating ([7]; Rate 32 g/ha): 30; Japonica 1 plant response rating ([7]; Rate 64 g/ha): 25; Japonica 2 plant response rating ([7]; Rate 64 g/ha): 30; Barnyardgrass 2 plant response rating ([8]; Rate 8 g/ha): 25; Barnyardgrass 3 plant response rating ([8]; Rate 8 g/ha): 35; Barnyardgrass 2 plant response rating ([8]; Rate 16 g/ha): 45; Barnyardgrass 3 plant response rating ([8]; Rate 16 g/ha): 45; Barnyardgrass 2 plant response rating ([8]; Rate 32 g/ha): 90; Barnyardgrass 3 plant response rating ([8]; Rate 32 g/ha): 55; Barnyardgrass 2 plant response rating ([8]; Rate 64 g/ha): 100; Barnyardgrass 3 plant response rating ([8]; Rate 64 g/ha): 70; Blackgrass (1) plant response rating ([9]; Rate 2 g/ha): 0; Blackgrass (2) plant response rating ([9]; Rate 2 g/ha): 0; Blackgrass (1) plant response rating ([9]; Rate 4 g/ha): 0; Blackgrass (2) plant response rating ([9]; Rate 4 g/ha): 0; Blackgrass (1) plant response rating ([9]; Rate 8 g/ha): 0; Blackgrass (2) plant response rating ([9]; Rate 8 g/ha): 0; Blackgrass (1) plant response rating ([9]; Rate 16 g/ha): 0; Blackgrass (2) plant response rating ([9]; Rate 16 g/ha): 0; Blackgrass (1) plant response rating ([9]; Rate 32 g/ha): 0; Blackgrass (2) plant response rating ([9]; Rate 32 g/ha): 10; Green foxtail plant response rating ([10]; Rate 2 g/ha): 0; Green foxtail plant response rating ([10]; Rate 4 g/ha): 0; Green foxtail plant response rating ([10]; Rate 8 g/ha): 20; Green foxtail plant response rating ([10]; Rate 16 g/ha): 50; Green foxtail plant response rating ([10]; Rate 32 g/ha): 60; Persn Speedwell plant response rating ([11]; Rate 2 g/ha): 50; Persn Speedwell plant response rating ([11]; Rate 4 g/ha): 50; Persn Speedwell plant response rating ([11]; Rate 8 g/ha): 60; Persn Speedwell plant response rating ([11]; Rate 16 g/ha): 100; Persn Speedwell plant response rating ([11]; Rate 32 g/ha): 100; Rape plant response rating ([12]; Rate 2 g/ha): 0; Rape plant response rating ([12]; Rate 4 g/ha): 0; Rape plant response rating ([12]; Rate 8 g/ha): 0; Rape plant response rating ([12]; Rate 16 g/ha): 0; Rape plant response rating ([12]; Rate 32 g/ha): 20; Sugar beet plant response rating ([13]; Rate 2 g/ha): 70; Sugar beet plant response rating ([13]; Rate 4 g/ha): 100; Sugar beet plant response rating ([13]; Rate 8 g/ha): 100; Sugar beet plant response rating ([13]; Rate 32 g/ha): 100; Wild buckwheat plant response rating ([14]; Rate 2 g/ha): 100; Wild buckwheat plant response rating ([14]; Rate 4 g/ha): 100; Wild buckwheat plant response rating ([14]; Rate 8 g/ha): 100; Wild buckwheat plant response rating ([14]; Rate 16 g/ha): 100; Wild buckwheat plant response rating ([14]; Rate 32 g/ha): 100
